This passage reports Activity results from ChEMBL document CHEMBL1141792, “Swartziarboreol diterpenes from Swartzia langsdorffii Raddi” (J Nat Prod, 2005).

Active and inactive are the calls of the source. The rule behind the calls is not given here.

This experiment concerns Staphylococcus aureus. As to the kind of experiment: Antibacterial activity against Staphylococcus aureus CCT 4295. It counts as functional, organism-based.

As to `COc1c(O)c2c(c3c1CCOC3=O)CC[C@H]1C(C)(C)CCC[C@]21C`, the result was Active.
